Reference: patent US11071721B2, “Bicyclic amide compounds and methods of use thereof” (Genentech, Inc., priority 2016, dated 2021)

target: human RIP1 kinase domain (2-375) (Homo sapiens (Human), UniProt Q13546); assay: RIP1 kinase inhibition assay (Transcreener ADP biochemical enzyme assay); conditions: Ki app (Morrison tight-binding fit); 50 nM enzyme, 50 uM ATP, 2 hours incubation, fluorescence polarization
In short: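 Baculovirus-expressed human RIP1 kinase domain (2-375), 50 nM, incubated 2 h with compound in pH 7.5 Hepes with 30 mM MgCl2, 1 mM DTT, 50 uM ATP, 0.5% DMSO. ADP detected by Transcreener fluorescence polarization (antibody/AlexaFluor 633 tracer displacement). Ki^app from Morrison tight-binding fit of fractional activity.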

human RIP1 kinase domain (2-375), sequence (Q13546 2-375): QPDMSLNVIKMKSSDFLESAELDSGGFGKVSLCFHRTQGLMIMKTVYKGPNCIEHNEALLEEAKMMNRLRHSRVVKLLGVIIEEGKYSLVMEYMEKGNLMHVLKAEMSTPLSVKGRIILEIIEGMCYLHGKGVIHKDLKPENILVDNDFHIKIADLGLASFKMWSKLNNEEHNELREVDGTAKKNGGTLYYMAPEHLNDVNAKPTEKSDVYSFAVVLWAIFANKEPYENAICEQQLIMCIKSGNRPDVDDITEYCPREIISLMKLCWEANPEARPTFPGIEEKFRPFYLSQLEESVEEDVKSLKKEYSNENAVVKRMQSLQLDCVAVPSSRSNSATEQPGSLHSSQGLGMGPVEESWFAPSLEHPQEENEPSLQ

Question: `O=C(c1nc2n(n1)[C@@H](c1ccccc1)C[C@H]2F)N1CC2CC2C1` (mixture of isomers) [Example 101, 3-azabicyclo[3.1.0]hexan-3-yl-[rac-(5R, 7R)-7-fluoro-5-phenyl-6,7-dihydro-5H-pyrrolo[1,2-b][1,2,4]triazol-2-yl] methanone] was tested. Which Ki did it give?
Answer: 0.082 µM

Question: Which Ki does the source give for `O=C(c1cc2n(n1)C(c1ccccc1)CC2)N1CC(F)(F)C1` (racemic) [Example 102, (3,3-difluoroazetidin-1-yl)-(6-phenyl-5,6-dihydro-4H-pyrrolo[1,2-b]pyrazol-2-yl)methanone] here?
Answer: 0.24 µM

Question: For `O=C(c1nc2n(n1)[C@@H](c1ccccc1)C[C@H]2F)N1CCC1` (racemic) [Example 104, azetidin-1-yl-[rac-(5R,7R)-7-fluoro-5-phenyl-6,7-dihydro-5H-pyrrolo [1,2-b][1,2,4]triazol-2-yl]methanone], which Ki is on record?
Answer: 0.031 µM

Question: How did the Ki turn out when `CN(C)C(=O)c1nc2n(n1)[C@@H](c1ccccc1)C[C@H]2F` (racemic) [Example 105, rac-(5R,7R)-7-fluoro-N,N-dimethyl-5-phenyl-6,7-dihydro-5H-pyrrolo[1,2-b][1,2,4]triazole-2-carboxamide] was run?
Answer: 0.056 µM

Question: With `O=C(c1nc2n(n1)[C@@H](c1ccccc1)CC2(F)F)N1CC(F)(F)C1` (single isomer, unassigned) [Example 1a] as the molecule, how does the Ki read?
Answer: 0.008 µM

Question: Which Ki does the source give for `O=C(c1nc2n(n1)[C@@H](c1ccccc1)CC2(F)F)N1CC(F)(F)C1` (single isomer, unassigned) [Example 1b] here?
Answer: > 10 µM

Question: `CC[C@@]1(C)OCc2cnc(C(=O)N3CC(F)(F)C3)cc21` (single isomer, unassigned) [Example 7] was tested. Which Ki did it give?
Answer: 1.98 µM

Question: `O=C(c1nc2n(n1)[C@H](c1ccccc1F)CC2)N1CC(F)(F)C1` (single isomer, unassigned) [Example 10] was tested. Which Ki did it give?
Answer: > 10 µM

Question: Which Ki does the source give for `O=C(c1nc2n(n1)[C@@H](c1ccccc1F)CC2)N1CC(F)(F)C1` (single isomer, unassigned) [Example 11] here?
Answer: 0.009 µM

Question: How did the Ki turn out when `O=C(c1nc2n(n1)[C@@H](c1ccccc1F)CC2)N1CCC1` (single isomer, unassigned) [Example 12] was run?
Answer: 0.137 µM

Question: `O=C(c1nc2n(n1)CC[C@H]2c1ccccc1)N1CC(F)(F)C1` (single isomer, unassigned) [Example 15] was tested. Which Ki did it give?
Answer: 0.066 µM

Question: For `CC1(F)CN(C(=O)c2nc3n(n2)[C@@H](c2ccccc2)CC3(F)F)C1` (single isomer, unassigned) [Example 38], which Ki is on record?
Answer: 0.048 µM

Question: `O=C(c1nc2n(n1)[C@@H](c1ccccc1)CC2(F)F)N1CC(F)C1` (single isomer, unassigned) [Example 48] was tested. Which Ki did it give?
Answer: 0.071 µM

Question: For `O=C(c1nc2n(n1)[C@H](c1ccccc1)C[C@@H]2F)N1CC[C@H]1C(F)F` (single isomer, unassigned) [Example 52], which Ki is on record?
Answer: 0.005 µM

Question: With `O=C(c1nc2n(n1)[C@@H](c1ccccc1)C[C@H]2F)N1CCC[C@@H]1C(F)F` (single isomer, unassigned) [Example 65] as the molecule, how does the Ki read?
Answer: 0.036 µM

Question: `C[C@H]1[C@@H](C(F)(F)F)CCN1C(=O)c1nc2n(n1)[C@H](c1ccccc1)C[C@@H]2F` (single isomer, unassigned) [Example 86] was tested. Which Ki did it give?
Answer: 0.005 µM

Question: How did the Ki turn out when `O=C(c1nc2n(n1)[C@H](c1ccccc1)CC2)N1CC(F)(F)C1` (stereo in doubt) [Example 31, (3,3-difluoroazetidin-1-yl)-[rac-(5S)-5-phenyl-6,7-dihydro-5H-pyrrolo[1,2-b][1,2,4]triazol-2-yl]methanone] was run?
Answer: 7.1 µM

Question: `O=C(c1nc2n(n1)[C@@H](c1ccccc1)CC2)N1CC(F)(F)C1` (stereo in doubt) [Example 32, (3,3-difluoroazetidin-1-yl)-[rac-(5R)-5-phenyl-6,7-dihydro-5H-pyrrolo[1,2-b][1,2,4]triazol-2-yl]methanone] was tested. Which Ki did it give?
Answer: 0.066 µM

Question: How did the Ki turn out when `O=C(c1nc2n(n1)[C@@H](c1ccccc1)C[C@H]2F)N1CCC(F)(F)C1` (stereo in doubt) [Example 54, (3,3-difluoropyrrolidin-1-yl)-[rac-(5R,7R)-7-fluoro-5-phenyl-6,7-dihydro-5H-pyrrolo [1,2-b][1,2,4]triazol-2-yl]methanone] was run?
Answer: 0.011 µM

Question: With `O=C(c1nc2n(n1)[C@@H](c1ccccc1)C[C@H]2F)N1CCn2nccc2C1` (stereo in doubt) [Example 66, 6,7-dihydro-4H-pyrazolo[1,5-a]pyrazin-5-yl-[rac-(5R,7R)-7-fluoro-5-phenyl-6,7-dihydro-5H-pyrrolo[1,2-b][1,2,4]triazol-2-yl]methanone] as the molecule, how does the Ki read?
Answer: 0.015 µM

Question: With `O=C(c1nc2n(n1)[C@@H](c1ccccc1)C[C@H]2F)N1CCc2cccnc2C1` (stereo in doubt) [Example 67, 6,8-dihydro-5H-1,7-naphthyridin-7-yl-[rac-(5R,7R)-7-fluoro-5-phenyl-6,7-dihydro-5H-pyrollo[1,2-b][1,2,4]triazol-2-yl]methanone] as the molecule, how does the Ki read?
Answer: 0.005 µM

Question: With `O=C(c1nc2n(n1)[C@H](c1ccccc1)C[C@@H]2F)N1CCn2nccc2C1` (stereo in doubt) [Example 69, 6,7-dihydro-4H-pyrazolo[1,5-a]pyrazin-5-yl-[rac-(5S,7S)-7-fluoro-5-phenyl-6,7-dihydro-5H-pyrrolo[1,2-b][1,2,4]triazol-2-yl]methanone] as the molecule, how does the Ki read?
Answer: 0.052 µM

Question: Which Ki does the source give for `O=C(c1nc2n(n1)[C@H](c1ccccc1)C[C@@H]2F)N1CCc2cccnc2C1` (stereo in doubt) [Example 74, 6,8-dihydro-5H-1,7-naphthyridin-7-yl-[rac-(5S, 7S)-7-fluoro-5-phenyl-6,7-dihydro-5H-pyrrolo [1,2-b][1,2,4]triazol-2-yl]methanone] here?
Answer: 0.024 µM

Question: How did the Ki turn out when `O=C(c1nc2n(n1)[C@@H](c1ccccc1)C[C@H]2F)N1CCc2ccccc2C1` (stereo in doubt) [Example 76] was run?
Answer: 0.031 µM

Question: `O=C(c1nc2n(n1)[C@H](c1ccccc1)C[C@@H]2F)N1CCC(F)(F)C1` (stereo in doubt) [Example 98, (3,3-difluoropyrrolidin-1-yl)-[rac-(5S,7S)-7-fluoro-5-phenyl-6,7-dihydro-5H-pyrrolo [1,2-b][1,2,4]triazol-2-yl]methanone] was tested. Which Ki did it give?
Answer: 0.036 µM

Question: How did the Ki turn out when `O=C(c1nc2n(n1)[C@H](c1ccccc1)C[C@@H]2F)N1CCc2ccccc2C1` (stereo in doubt) [Example 99, 3,4-dihydro-1H-isoquinolin-2-yl-[rac-(5S,7S)-7-fluoro-5-phenyl-6,7-dihydro-5H-pyrrolo[1,2-b][1,2,4]triazol-2-yl]methanone] was run?
Answer: 0.013 µM

Question: Which Ki does the source give for `O=C(c1nc2n(n1)[C@H](c1ccccc1)C[C@@H]2F)N1CC(F)(F)C1` [Example 3, (3,3-difluoroazetidin-1-yl)-[(5S,7S)-7-fluoro-5-phenyl-6,7-dihydro-5H-pyrrolo[1,2-b][1,2,4]triazol-2-yl]methanone] here?
Answer: 0.009 µM

Question: `O=C(c1cc2n(n1)CC[C@@H]2c1ccccc1)N1CC(F)(F)C1` [Example 9, (3,3-difluoroazetidin-1-yl)-[(4R)-4-phenyl-5,6-dihydro-4H-pyrrolo[1,2-b]pyrazol-2-yl]methanone] was tested. Which Ki did it give?
Answer: 2.66 µM

Question: Which Ki does the source give for `CCC(F)(F)n1ncc2cnc(C(=O)N3CC(F)(F)C3)cc21` [Example 103] here?
Answer: 6.7 µM
